The source of these data is ChEMBL document CHEMBL3044860, “13-Deoxyitol A, a new insecticidal isoryanodane diterpene from the seeds of Itoa orientalis” (2009).

Common to all, as to type: functional
In experiment [1] the test system is Sogatella furcifera. The experiment can be described thus: Antifeedant activity against fourth-instar nymph stage of Sogatella furcifera in tillering to booting period rice seedlings.
The test system of experiment [2] is Spodoptera litura. In words: Contact toxicity against third-instar larval stage of Spodoptera litura applied topically measured per insect.
For experiment [3], the system named is Sogatella furcifera. The experiment can be described thus: Contact toxicity against macropterous female Sogatella furcifera applied topically measured per insect.
The subject of experiment [4] is Nilaparvata lugens. In words: Contact toxicity against macropterous female Nilaparvata lugens (brown planthopper) applied topically measured per insect.
For experiment [5], the system named is Nilaparvata lugens. In words: Antifeedant activity against fourth-instar nymph stage of Nilaparvata lugens (brown planthopper) in tillering to booting period rice seedlings.
The test system of experiment [6] is Spodoptera litura. In words: Antifeedant activity against third-instar larval stage of Spodoptera litura in cabbage mustard leaves.
Experiment [7] has as its system Plutella xylostella. The experiment can be described thus: Antifeedant activity against third-instar larval stage of Plutella xylostella (diamondback moth) in cabbage mustard leaves.
For experiment [8], the system named is Plutella xylostella. In words: Contact toxicity against third-instar larval stage of Plutella xylostella (diamondback moth) applied topically measured per insect.

Turning to `CC(C)[C@@H]1[C@H](O)[C@H]2C(C)(CO)[C@@]3(O)CC[C@@H](C)[C@H]3[C@H]3OC[C@]1(C)[C@]32O` (stereo not given in full) [13-DEOXYITOL A], the AFC50 in the experiment on Sogatella furcifera [1] came to 23.5 µg/mL; in the experiment with Nilaparvata lugens [5], 38.9 µg/mL; in the experiment with Spodoptera litura [6], 50.1 µg/mL; in the experiment with Plutella xylostella [7], 29.3 µg/mL. Further, the LD50 with Spodoptera litura [2] was 0.22 µg; with Sogatella furcifera [3], above 2 µg; in the experiment on Nilaparvata lugens [4] it was above 2 µg; in the experiment on Plutella xylostella [8], 0.22 µg.

On to `C/C=C(\C)C(=O)O[C@H]1C[C@@H](OC(C)=O)[C@@]2(C(=O)OC)CO[C@H]3[C@@H](O)[C@@](C)([C@]45O[C@@]4(C)[C@@H]4C[C@H]5O[C@@H]5OC=C[C@@]54O)[C@H]4[C@]1(CO[C@]4(O)C(=O)OC)[C@@H]32` [AZADIRACHTIN A], for which the AFC50 in the experiment with Sogatella furcifera [1] came to 7 µg/mL; in the experiment with Nilaparvata lugens [5], 7.5 µg/mL; in the experiment with Spodoptera litura [6], 9.8 µg/mL; in the experiment on Plutella xylostella [7] it was 9.3 µg/mL.

Regarding `CC(C)[C@@]1(O)[C@H](O)[C@@H]2[C@@]3(O)[C@@H]4O[C@@](O)(C[C@@]2(C)[C@@]2(O)CC[C@@H](C)[C@@H]42)[C@]31C` [ITOL A], the AFC50 amounted to 29.3 µg/mL with Sogatella furcifera [1], 34.8 µg/mL in the experiment on Nilaparvata lugens [5], 47.5 µg/mL in the experiment on Spodoptera litura [6] and 22.5 µg/mL in the experiment with Plutella xylostella [7]. In addition, the LD50 is 0.22 µg with Spodoptera litura [2], above 2 µg in the experiment with Sogatella furcifera [3], above 2 µg in the experiment with Nilaparvata lugens [4] and 0.22 µg with Plutella xylostella [8].
